Measurements taken from US20260325481A1, “THERAPY SELECTION AND TREATMENT OF NEURODEGENERATIVE DISORDERS” (Anavex Life Sciences Corp., priority 2022, published 2026).
Read-outs that look alike come from different tables or passages of the source.

Columns and labels:
Cluster 2 (962 genes) = experiment: RNAseq whole blood transcriptomics, WGCNA Cluster 2 and pathway analysis; parameters: species or system human; settings: for Number of pathways significantly overrepresented in second cluster: among its 317 pathways
Experimental: (§1) In order to gain insights into ANAVEX 2-73 response pathways, during the Phase 2 study, patients' DNA and RNA sequencing were analyzed. Transcriptomic samples of 65 patients enrolled in either High Dose or Mid Dose arms were collected at baseline and at the end of treatment (Week 14). The expression of 14,150 genes was measured. No transformation was applied to the TPM values. Values associated with a with RIN s 4.0 were discarded. The actual dose of ANAVEX 2-73 (blarcamesine) that was given to each patient during the trial was assessed and integrated into the database. To characterize the gene dysregulations, a pathway database was built using an aggregation of public databases including KEGG, Panther, Allen, Brain Atlas, Gene Ontology, and Reactome.
The genes were clustered together using WGCNA, starting from their correlation of TPM expression values across samples. Seventeen clusters with size ranging from 13 to 11,190 genes were obtained through this gene clusterisation. The TPM expression values of genes in clusters were then aggregated in a single “eigengene” for each cluster. This eigengene served as a representant of the overall dysregulation of the cluster. Secondly, a cluster filtering was performed, wherein patients' arm and dose information were taken into account based on mixed effect models. For each cluster, the eigengene was used as target variable of a linear mixed effect model with 3 covariates: ActualDose, Patient, and timepoint. For each cluster, the contrast ActualDose, i.e. treated vs placebo were evaluated across all timepoints. P-values were obtained with Dunnett's test. Regardless of the cluster and pathway, pathways with less than 4 genes in a cluster were removed, to compensate for the large variability of cluster size and corresponding variability of number of pathways identified in each clusters. The ratio between cluster size and number of pathways was calculated, and top 2 clusters were retained for further Analysis. Cluster 1 contained 213 genes (n1=213) and 37 pathways, and Cluster 2 contained 962 genes (n2=962) and 317 pathways. […] Thirdly, the two retained clusters were characterized and underwent pathway analysis. The characterization and analysis were applied to all the genes of the cluster (whole cluster), and to the genes of the clusters that are known to have biological interactions (reduced cluster). In the whole cluster analysis, overrepresented pathways were identified using EnrichR package with the parameters of Fisher's adjusted p-value p<0.05 (Benjamini-Hochberg adjustment for multiple testing) and minimum pathway size 20. In the reduced cluster analysis, genes that have no interaction with any other genes of the cluster were discarded, resulting in a reduced cluster. Pathway analysis was performed on these reduced clusters. False Discovery Rate with adjustment for multiple testing (Benjamini-Hochberg procedure) was used to characterize pathways' over-representation. Known interactions between the genes of the cluster were assessed using STRING database with the parameters of Edge score >0.150, and no text mining edges. Known interactions were obtained from public databases, such as KEGG, Panther, Allen, Brain Atlas, Gene Ontology, and Reactome.
(§2) Whole Blood Transcriptomics Analysis (RNAseq) of patients with Parkinson's disease with dementia (PDD) was performed for the ANAVEX®2-73-PDD-001 study (FIG. 1) at two timepoints: Baseline and Week 14 (end of trial). All available RNA samples with […] (RNA integrity number, using 130 samples) were analyzed. The expression of 14,150 genes at these two timepoints were analyzed from both placebo and ANAVEX® 2-73 treated patients.
The above method was performed as illustrated in FIG. 2B. […] Then, the cluster's eigengene3 (one of a set of a genes matrix that tabulates the mRNA or gene expression of the genes across the sample) was used as summary of expression level of the cluster. […]

[1] = test system: gene clusters differentially expressed in PDD patients; experiment: RNAseq whole blood transcriptomics, gene clusters overall; parameters: species or system human
Experimental: as §1
The genes were clustered together using WGCNA, starting from their correlation of TPM expression values across samples. Seventeen clusters with size ranging from 13 to 11,190 genes were obtained through this gene clusterisation. The TPM expression values of genes in clusters were then aggregated in a single “eigengene” for each cluster. This eigengene served as a representant of the overall dysregulation of the cluster. […] For each cluster, the contrast ActualDose, i.e. treated vs placebo were evaluated across all timepoints. […] The ratio between cluster size and number of pathways was calculated, and top 2 clusters were retained for further Analysis. […] Known interactions between the genes of the cluster were assessed using STRING database with the parameters of Edge score >0.150, and no text mining edges. […]
as §2, with “patients. […]” for “patients.”

SIGMAR1 = SIGMAR1 levels in PDD-001 patients; format: in vivo, human; settings: PDD-001 study
Experimental: The trial enrolled 132 adults, ages 50-85, with PDD, and was successfully concluded in September 2020. Participants, recruited at multiple sites in Spain and Australia, were randomly assigned to one of two doses groups (with an escalating ANAVEX 2-73 dose up to 30 or 50 mg oral capsules) or to a placebo, once daily for 14 weeks (see FIG. 1 for details). The trial's main goals were to assess the therapy's safety and changes in patients' cognitive function, measured using the cognitive drug research computerized assessment system—a test that looks at multiple cognitive skills, such as choice reaction time (choosing between similar objects), vigilance, and episodic memory (remembering new personal experiences or shared information). Secondary goals included changes in patients' motor abilities—assessed with the Movement Disorders Society Unified Parkinson's Disease Rating Scale (MDS-UPDRS) Part III—and sleep quality. […] This sleep disorder is associated with greater cognitive impairment and a higher risk of dementia. […] After 14 weeks, the MDS-UPDRS total score dropped by 10.98 points (indicating an easing in disease severity) in the high-dose group and rose by 3.53 points in the placebo group. This represented an adjusted mean improvement of 14.51 points—surpassing the established, clinically meaningful 7.1 point-cut-off—and a relative improvement of 18.9% over 14 weeks. […]

[2] = test system: Sigma-1 receptor (SIGMAR1); settings: cited from earlier work

CN(C)CC1CCOC1(c1ccccc1)c1ccccc1.Cl (stereo not shown) [ANAVEX2-73, tetrahydro-N,N-dimethyl-2,2-diphenyl-3-furanmethanamine hydrochloride]
Overlap (Cluster 2 (962 genes)): 45/273 | Number of pathways significantly overrepresented in second cluster (Cluster 2 (962 genes); listed as ANAVEX 2-73, hydrochloride): 15 pathways | Number of pathways significantly overrepresented in second cluster (Cluster 2 (962 genes); listed as ANAVEX® 2-73, hydrochloride): 10 pathways | Overlap (Cluster 2 (962 genes); genes of pathway in Cluster 2/genes in pathway, KEGG 2021, Alzheimer disease): 47/369 | Overlap (Cluster 2 (962 genes); genes of pathway in Cluster 2/genes in pathway, KEGG 2021, Amyotrophic lateral sclerosis): 46/364 | Overlap (Cluster 2 (962 genes); genes of pathway in Cluster 2/genes in pathway, KEGG 2021, Cardiac muscle contraction): 11/87 | Overlap (Cluster 2 (962 genes); genes of pathway in Cluster 2/genes in pathway, KEGG 2021, Coronavirus disease): 80/232 | Overlap (Cluster 2 (962 genes); genes of pathway in Cluster 2/genes in pathway, KEGG 2021, Diabetic cardiomyopathy): 36/203 | Overlap (Cluster 2 (962 genes); genes of pathway in Cluster 2/genes in pathway, KEGG 2021, Huntington disease): 48/306 | Overlap (Cluster 2 (962 genes); genes of pathway in Cluster 2/genes in pathway, KEGG 2021, Non-alcoholic fatty liver disease): 34/155 | Overlap (Cluster 2 (962 genes); genes of pathway in Cluster 2/genes in pathway, KEGG 2021, OProteasome): 9/46 | Overlap (Cluster 2 (962 genes); genes of pathway in Cluster 2/genes in pathway, KEGG 2021, Oxidative phosphorylation): 36/133 | Overlap (Cluster 2 (962 genes); genes of pathway in Cluster 2/genes in pathway, KEGG 2021, Parkinson disease): 46/249 | Overlap (Cluster 2 (962 genes); genes of pathway in Cluster 2/genes in pathway, KEGG 2021, Pathways of neurodegeneration): 50/475 | Overlap (Cluster 2 (962 genes); genes of pathway in Cluster 2/genes in pathway, KEGG 2021, Retrograde endocannabinoid signaling): 24/148 | Overlap (Cluster 2 (962 genes); genes of pathway in Cluster 2/genes in pathway, KEGG 2021, Ribosome): 96/158 | Overlap (Cluster 2 (962 genes); genes of pathway in Cluster 2/genes in pathway, KEGG 2021, Thermogenesis): 45/232 | Overlap (Cluster 2 (962 genes); genes of term in Cluster 2/genes in term, Allen Brain Atlas, Anterior olfactory nucleus): 27/300 | Overlap (Cluster 2 (962 genes); genes of term in Cluster 2/genes in term, Allen Brain Atlas, Anterior olfactory nucleus, external part): 34/300 | Overlap (Cluster 2 (962 genes); genes of term in Cluster 2/genes in term, Allen Brain Atlas, Anterior olfactory nucleus, layer 1): 36/300 | Overlap (Cluster 2 (962 genes); genes of term in Cluster 2/genes in term, Allen Brain Atlas, Main olfactory bulb): 31/300 | Overlap (Cluster 2 (962 genes); genes of term in Cluster 2/genes in term, Allen Brain Atlas, Main olfactory bulb, glomerular layer): 36/300 | Overlap (Cluster 2 (962 genes); genes of term in Cluster 2/genes in term, Allen Brain Atlas, Main olfactory bulb, inner plexiform layer): 28/300 | Overlap (Cluster 2 (962 genes); genes of term in Cluster 2/genes in term, Allen Brain Atlas, Main olfactory bulb, mitral layer): 28/300 | Overlap (Cluster 2 (962 genes); genes of term in Cluster 2/genes in term, Allen Brain Atlas, Main olfactory bulb, outer plexiform layer): 30/300 | Overlap (Cluster 2 (962 genes); genes of term in Cluster 2/genes in term, Allen Brain Atlas, OB olfactory fiber layer): 33/300 | Overlap (Cluster 2 (962 genes); genes of term in Cluster 2/genes in term, Allen Brain Atlas, Olfactory areas): 27/300 | Overlap (Cluster 2 (962 genes); genes of term in Cluster 2/genes in term, Allen Brain Atlas, Olfactory bulb, principal part): 32/300 | Cluster 2 eigengene expression (Cluster 2 (962 genes); high oral dose vs placebo): significantly increased | Number of brain areas significantly overrepresented in second cluster (Cluster 2 (962 genes); n2=962 genes): 74 brain areas | Number of overrepresented brain areas linked to the olfactory bulb (Cluster 2 (962 genes); out of 74): 11 brain areas | Number of clusters with significant association between treatment and estimated marginal mean expression ([1]; Dunnett's test, linear mixed-effect model): 6 clusters | Dysregulations of Clusters 1 and 2 ([1]; highest dose): significantly linked to the highest dose | Regulation of both identified clusters ([1]; treated patients compared to placebo, 14 weeks): up-regulated | SIGMAR1 levels (SIGMAR1): significant increase | Association of rise in SIGMAR1 levels with clinical response (SIGMAR1; attention measures, MDS-UPDRS total and Part III): significantly associated with improvements in attention measures, and reductions in both MDS-UPDRS total and MDS-UPDRS Part III (motor scores) | Sigma-1 receptor (SIGMAR1) activity [2]: agonist
